Assay results published in patent US20250032430A1, “USES OF RHODOQUINONE FOR THE TREATMENT OF DISEASE” (Whitehead Institute for Biomedical Research, priority 2021, published 2025).

Assays:
SDH complex [1] = target: T1, SDH complex (Homo sapiens, UniProt O14521+P21912+P31040+Q99643); assay: SDH forward/reverse activity (succinate oxidation, fumarate reduction) by stable isotope tracing in cells; assay type: cell-based
T1 construct: endogenous in cells; host or cells: 143B cells (A5: live cells; A6: permeabilized mitochondria purified from them)
Excerpt: Fumarate reduction can be monitored in cells by the stable isotope tracing of either ^13C4-aspartate or ^13C5^15N2-glutamine. ^13C4-aspartate contributes to the fumarate pool via oxaloacetate and malate and so should lead to the production of ^13C4-succinate upon fumarate reduction (FIG. 2B). ^13C5^15N2-glutamine contributes to the fumarate pool through the reductive arm of the TCA cycle via glutamate, α-ketoglutarate, isocitrate, citrate, oxaloacetate, and malate. A key distinction between the two labeling approaches is that ^13C5^15N2-glutamine enriches the fumarate pool more upon antimycin treatment due to enhanced reductive carboxylation flux, whereas ^13C4-aspartate labels the fumarate pool to equivalent extents in vehicle and antimycin-treated cells (FIG. 2C). Therefore, with stable isotope tracing of ^13C4-aspartate, the level of ^13C4-succinate is a direct measure of fumarate reduction, whereas the stable isotope tracing of ^13C5^15N2-glutamine requires a ratiometric analysis of labeled succinate to labeled fumarate to normalize for differences in the extent of fumarate labeling.
To test if hypoxia triggers electron leakage onto fumarate or a net-reversal of the SDH complex, the ^13C5^15N2-glutamine tracer was utilized, which enables simultaneous quantification of the forward and reverse activities of SDH through the generation of unique isotopologues upon flux through the oxidative arm (α-ketoglutarate to succinate) compared to the reductive arm (α-ketoglutarate—via citrate—to fumarate) of the TCA cycle (FIG. 2E). In this assay, the forward (succinate oxidation) reaction was defined as the ratio of percent labeled ^13C4-fumarate to its precursor ^13C4-succinate (FIG. 2E) and the reverse (fumarate reduction) as that of percent labeled ^13C3-succinate to its precursor ^13C3-fumarate (FIG. 2E). This type of analysis can be performed when the labeling is in the steady-state, which was determined to be after 4-8 hours of incubation with ^13C5^15N2-glutamine (FIG. S2E-F). This ratiometric analysis of the succinate and fumarate isotopologues eliminates potential biases in the assay, such as higher ^13C3-fumarate labeling in antimycin-treated cells caused increased reductive carboxylation flux (FIG. S2E).
Stable isotope tracing in cells: Cells were seeded 24 hours prior to the experiment in 6-well dishes at 70% density. For stable isotope tracing of glutamine, glutamine-free DMEM (ThermoFisher) was supplemented with 2 mM ^13C5^15N2-glutamine (Sigma), 1 mM pyruvate, 5% FBS, 1% P/S, 0.1 mg/mL uridine. For stable isotope tracing of aspartate, DMEM containing 5% FBS, and 1% penicillin and streptomycin, and 0.1 mg/mL uridine (Sigma) was supplemented with the designated amount of 13C4-aspartate (Sigma) and the pH adjusted to 7.4. Uridine was left out of the media for stable isotope tracing experiments measuring nucleotide biosynthesis. Unless otherwise stated, for all experiments, cells were treated for 8 hours and metabolites were isolated as described below. Relevant compounds were added at the start of the incubation periods.

SDH complex [2] = assay: SDH activity assay in permeabilized purified mitochondria; assay type: biochemical, human
Experimental: SDH activity was examined in permeabilized purified mitochondria. The rate of succinate oxidation was measured by monitoring fumarate production over time after initiating the reaction with succinate. The rate of fumarate reduction was measured in a separate assay by monitoring the rate of succinate production over time after initiating the reaction with fumarate and NADH. […] Moreover, complex I inhibition by piericidin suppressed the fumarate reduction caused by antimycin treatment (FIG. 2I).
Isolation of Mitochondria for Biochemical Assays: 143B cells were scraped and pelleted at 1000×g for 5 minutes. Cell pellets were washed in 1×PBS and pelleted at 1000×g for 5 minutes. For tissue samples, approximately 100 mg of tissue powder was weighed out. Tissue powder or cells were re-suspended in isolation buffer (200 mM sucrose, 10 mM Tris HCl, 1 mM EGTA/Tris, pH 7.4 (adjusted with 1M HEPES)), transferred into an ice-cold glass homogenizer (VWR), and dounced with 15-30 strokes. Homogenates were transferred into tubes and spun at 600×g for 10 minutes at 4° C. Supernatants were moved to a new tube and centrifugation was repeated. Then, supernatants were moved to a new tube and pelleted at 7,000×g for 10 minutes at 4° C. Pellets were washed in isolation buffer and centrifugation was repeated. Pellets were subsequently stored at −80° C. until use.
SDH Activity Assay: Purified mitochondria were re-suspended in buffer (0.22 M Mannitol, 0.075 M Sucrose, 1 mM EDTA, 10 mM HEPES pH 7.4, and one complete Protease inhibitor tablet (Sigma)) to a concentration of 5 mg/mL and underwent 5 freeze-thaw cycles to permeabilize them. 30 μg mitochondria (6 uL) were diluted 1:10 (in 54 uL) of SDH activity assay buffer (27.5 mM KH2PO4 pH 7.4, 1.1 mM CoQ-10 (Sigma), 3.5 g/L BSA). Reactions were supplemented with DMSO, 1 μM antimycin, or 1 μM piericidin and pre-incubated at 37° C. for 10 minutes. […] Samples were centrifuged at 16,000×g for 10 minutes at 4° C. and supernatants were dried down and analyzed by LC-MS for succinate and fumarate.

[3] = 13C5 15N2-glutamine tracing, 143B cells

T1 sequence (P31040 43-664): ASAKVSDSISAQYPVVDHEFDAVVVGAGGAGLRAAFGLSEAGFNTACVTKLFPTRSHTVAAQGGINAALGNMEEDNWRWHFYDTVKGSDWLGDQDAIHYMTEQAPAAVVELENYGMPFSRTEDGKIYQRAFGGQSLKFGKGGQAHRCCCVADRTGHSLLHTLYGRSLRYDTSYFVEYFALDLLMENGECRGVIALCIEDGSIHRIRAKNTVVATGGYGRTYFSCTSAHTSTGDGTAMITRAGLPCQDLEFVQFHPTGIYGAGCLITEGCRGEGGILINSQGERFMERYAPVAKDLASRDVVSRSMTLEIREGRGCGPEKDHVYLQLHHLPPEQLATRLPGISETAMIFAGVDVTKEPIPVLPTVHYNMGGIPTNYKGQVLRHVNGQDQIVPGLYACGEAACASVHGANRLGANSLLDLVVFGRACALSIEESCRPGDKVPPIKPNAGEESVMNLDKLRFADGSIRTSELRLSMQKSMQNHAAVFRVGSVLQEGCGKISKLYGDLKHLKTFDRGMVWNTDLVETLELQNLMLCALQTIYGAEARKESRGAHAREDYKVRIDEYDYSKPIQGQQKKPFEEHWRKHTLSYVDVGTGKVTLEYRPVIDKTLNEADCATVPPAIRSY
T1 sequence (P21912 29-280): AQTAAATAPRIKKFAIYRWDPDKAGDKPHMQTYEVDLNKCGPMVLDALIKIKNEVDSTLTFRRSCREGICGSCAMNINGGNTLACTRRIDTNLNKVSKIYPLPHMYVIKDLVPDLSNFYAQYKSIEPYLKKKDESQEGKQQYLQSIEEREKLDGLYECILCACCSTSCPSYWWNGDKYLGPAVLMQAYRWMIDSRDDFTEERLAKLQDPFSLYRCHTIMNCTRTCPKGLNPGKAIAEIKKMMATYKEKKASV
T1 sequence (Q99643 30-169): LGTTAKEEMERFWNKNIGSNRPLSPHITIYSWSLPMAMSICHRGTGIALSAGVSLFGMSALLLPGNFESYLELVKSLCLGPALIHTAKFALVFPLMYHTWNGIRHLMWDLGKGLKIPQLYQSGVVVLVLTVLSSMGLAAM
T1 sequence (O14521 57-159): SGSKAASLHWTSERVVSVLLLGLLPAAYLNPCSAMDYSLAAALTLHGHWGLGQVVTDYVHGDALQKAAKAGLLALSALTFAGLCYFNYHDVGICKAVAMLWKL

| Substance | terminal electron acceptor use in the mammalian ETC (SDH complex [1]; rhodoquinone generated by RquA expression in cells) | fumarate reduction (succinate production over time) (SDH complex [2]; purified permeabilized mitochondria from WT and RquA-expressing cells, fumarate and NADH, absence of antimycin) | fumarate reduction (SDH reverse activity) (SDH complex [1]; [3]) | succinate oxidation (SDH forward activity) (SDH complex [1]; [3]) | conversion of fumarate into succinate (13C4-succinate production, 13C4-aspartate tracing) (SDH complex [1]; WT 143B cells, 500 nM antimycin) | ratio of isotopologues: fumarate reduction over succinate oxidation (SDH complex [1]; antimycin treatment (also hypoxia exposure)) | fumarate reduction and succinate oxidation reactions (SDH complex [1]; cells lacking SDHA or SDHB) | rate of succinate oxidation versus fumarate reduction (vehicle: succinate oxidation higher) (SDH complex [2]; permeabilized purified mitochondria, 1 μM antimycin) |
| --- | --- | --- | --- | --- | --- | --- | --- | --- |
| rhodoquinone | promotes the use of fumarate as a terminal electron acceptor | sufficient to drive fumarate reduction | – | – | – | – | – | – |
| antimycin | – | – | increased | decreased | robustly stimulated | approximately 4 fold | not altered | the opposite was the case |
